According to patent publication US20240010646A1, “Urea Co-Crystal of Apixaban, and Preparation Method Therefor” (CHENGDU EASTON BIOPHARMACEUTICALS CO., LTD., priority 2021, published 2024):
Converted amounts (≈) assume the structure as drawn. Where two headings read alike, the source gives them in different places.

Columns and labels:
[1] = In vivo pharmacokinetic test in rat, single oral administration, plasma LC/MS/MS; parameters: species or system SD rats; details: for Cl_F_obs / Tmax / AUC(0-t) / half-life / Cmax / MRT / AUClast / T1/2: corn oil suspension, 4 mL/kg
Procedure: 18 SD rats with 9 male rats and 9 female rats, weighing 220-240 g, purchased by Chengdu Ensiweier Biotechnology Co., Ltd. from Hunan SJA Laboratory Animal Co., Ltd, License: SCXK (Xiang) 2019-0004.
After the test drugs were prepared into […] uniform suspensions with corn oil, they were immediately administered orally to rats at 4 mL/kg, and 0.1 mL of blood was sampled from the jugular vein before the administration and 15 min, 30 min, 1 h, 2 h, 3 h, 4 h, 5 h, 6 h, 7 h, 8 h and 24 h after the administration, placed in EDTA-K2 tubes and centrifuged at 3000 r/min for 10 min. The plasma was separated and stored by freezing at −80° C. in refrigerator.
50 μL of plasma was taken and evenly mixed with 5 μL of working solution or blank diluent, 150 μL of the internal-standard acetonitrile-containing precipitant was added thereto, which was shaken with vortex for 2 min, and centrifuged at 12000 r/min for 10 min. 2 μL of Supernatant was taken and mixed with 200 μL of pure water: acetonitrile (1:1), and then the resultant sample was injected with a volume of 3 μL for analysis.

[2] = Equilibrium solubility test (saturated solutions, external standard method); format: physicochemical
[3] = Stability test (high temperature, light irradiation, long-term and accelerated storage); format: physicochemical
[4] = female rats, listed as Crystalline form N-1
[5] = female, Sprague-Dawley (SD), rat, plasma, po, 1.25 mg/kg, female rats
[6] = male, Sprague-Dawley (SD), rat, plasma, po, 1.25 mg/kg, male rats
[7] = female rats, listed as The urea co-crystal A
[8] = male rats, listed as The urea co-crystal A

**Q.** With `COc1ccc(-n2nc(C(N)=O)c3c2C(=O)N(c2ccc(N4CCCCC4=O)cc2)CC3)cc1` [N-1, 1-(4-methoxyphenyl)-7-oxo-6-(4-(2-oxopiperidin-1-yl)phenyl)-4,5,6,7-tetrahydr o-1H-pyrazolo[3,4-c]pyridine-3-carboxamide, reference compound] as the compound, how does the Cl_F_obs [1, 4] read?
**A.** Its Cl_F_obs is 13.4 mL/day/kg.

**Q.** And the Tmax [1, 4]?
**A.** The Tmax was 5.83 ± 3.75 h.

**Q.** And the AUC(0-t) [1, 5]?
**A.** Its AUC(0-t) is 27800 ± 13000 ng·h/mL.

**Q.** What about the half-life [1, 5] of the same compound?
**A.** The half-life was 6.83 h.

**Q.** And the Cmax ([1]; female, Sprague-Dawley (SD), rat, plasma, po, 1.25 mg/kg, female rats, read-out: Cmax)?
**A.** The Cmax was 2570 ± 999 ng/mL.

**Q.** What about the MRT ([1]; female, Sprague-Dawley (SD), rat, plasma, po, 1.25 mg/kg, female rats, read-out: MRT) of the same compound?
**A.** The MRT was 7.37 ± 1.79 h.

**Q.** What about the Cl_F_obs ([1]; male rats, listed as Crystalline form N-1) of the same compound?
**A.** The Cl_F_obs was 15.4 ± 7.68 mL/day/kg.

**Q.** What about the AUC(0-t) [1, 6] of the same compound?
**A.** The AUC(0-t) was 19800 ± 14000 ng·h/mL.

**Q.** And the half-life [1, 6]?
**A.** The half-life was 5.05 ± 1.43 h.

**Q.** And the Cmax ([1]; male, Sprague-Dawley (SD), rat, plasma, po, 1.25 mg/kg, male rats, read-out: Cmax)?
**A.** Its Cmax is 4090 ± 3250 ng/mL.

**Q.** And the MRT ([1]; male, Sprague-Dawley (SD), rat, plasma, po, 1.25 mg/kg, male rats, read-out: MRT)?
**A.** The MRT was 4.78 ± 0.75 h.

**Q.** What about the Tmax ([1]; male, Sprague-Dawley (SD), rat, plasma, po, 1.25 mg/kg, male rats, read-out: Tmax) of the same compound?
**A.** Its Tmax is 1 ± 0.87 h.

**Q.** What about the solubility ([2]; hydrochloric acid (0.1N), 25 °C, pH 1, simulated gastric fluid, thermodynamic from solid, hydrochloric acid pH 1.0 (0.1N), 25° C., read-out: Solubility) of the same compound?
**A.** Its solubility is 31.4 µg/mL (≈ 68.4 µM).

**Q.** What about the solubility ([2]; hydrochloric acid (0.1N), 37 °C, pH 1, simulated gastric fluid, thermodynamic from solid, hydrochloric acid pH 1.0 (0.1N), 37° C., read-out: Solubility) of the same compound?
**A.** The solubility was 38.4 µg/mL (≈ 83.6 µM).

**Q.** What about the solubility ([2]; phosphate buffer pH 6.8, 25° C.) of the same compound?
**A.** Its solubility is 22.09 µg/mL (≈ 48.1 µM).

**Q.** And the solubility ([2]; phosphate buffer, 37 °C, pH 6.8, aqueous buffer, thermodynamic from solid, phosphate buffer pH 6.8, 37° C., read-out: Solubility)?
**A.** The solubility was 29.4 µg/mL (≈ 63.9 µM).

**Q.** What about the solubility ([2]; pure water, 25 °C, water, thermodynamic from solid, pure water, 25° C., read-out: Solubility) of the same compound?
**A.** Its solubility is 36.7 µg/mL (≈ 79.8 µM).

**Q.** And the solubility ([2]; pure water, 37 °C, water, thermodynamic from solid, pure water, 37° C., read-out: Solubility)?
**A.** The solubility was 49.2 µg/mL (≈ 107 µM).

**Q.** With `COc1ccc(-n2nc(C(N)=O)c3c2C(=O)N(c2ccc(N4CCCCC4=O)cc2)CC3)cc1` [Co-crystal A] as the compound, how does the Purity % ([3]; 25 ± 2° C., 60 ± 5% RH, 6 months) read?
**A.** Its Purity % is 99.92%.

**Q.** What about the Purity % ([3]; 25 ± 2° C., 60 ± 5% RH, Start) of the same compound?
**A.** The Purity % was 99.93%.

**Q.** What about the Purity % ([3]; 40 ± 2° C., 75 ± 5% RH, 6 months) of the same compound?
**A.** Its Purity % is 99.92%.

**Q.** What about the Purity % ([3]; 40 ± 2° C., 75 ± 5% RH, Start) of the same compound?
**A.** Its Purity % is 99.93%.

**Q.** And the Purity % ([3]; High Temperature (60° C.), 1 month)?
**A.** Its Purity % is 99.92%.

**Q.** What about the Purity % ([3]; High Temperature (60° C.), Start) of the same compound?
**A.** The Purity % was 99.93%.

**Q.** What about the Purity % ([3]; Light Irradiation, 1 month) of the same compound?
**A.** Its Purity % is 99.93%.

**Q.** And the Purity % ([3]; Light Irradiation, Start)?
**A.** Its Purity % is 99.93%.

**Q.** What about the Crystalline form stability ([3]; all study conditions) of the same compound?
**A.** The Crystalline form stability was “good crystalline form stability”.

**Q.** And the “Increase of bioavailability compared with crystalline form N-1” value ([1]; female rats)?
**A.** Its value is 21%.

**Q.** And the “Increase of bioavailability compared with the urea co-crystal IV from HEC Pharm Co., Ltd” value ([1]; female rats)?
**A.** Its value is 44.98%.

**Q.** What about the AUClast [1, 7] of the same compound?
**A.** Its AUClast is 33636 ± 8113 ng·h/mL.

**Q.** What about the Cl_F_obs [1, 7] of the same compound?
**A.** Its Cl_F_obs is 7.2 ± 1.9 mL/day/kg.

**Q.** What about the Cmax [1, 7] of the same compound?
**A.** The Cmax was 4653 ± 763 ng/mL.

**Q.** And the MRT [1, 7]?
**A.** Its MRT is 5.55 ± 0.61 h.

**Q.** And the T1/2 [1, 7]?
**A.** Its T1/2 is 4.49 ± 0.10 h.

**Q.** What about the Tmax [1, 7] of the same compound?
**A.** Its Tmax is 1.08 ± 0.72 h.

**Q.** What about the “Increase of bioavailability compared with crystal form N-1” value ([1]; male rats) of the same compound?
**A.** Its value is 29.36%.

**Q.** And the “Increase of bioavailability compared with the urea co-crystal IV from HEC Pharm Co., Ltd” value ([1]; male rats)?
**A.** Its value is 49.94%.

**Q.** And the AUClast [1, 8]?
**A.** Its AUClast is 25567 ± 14447 ng·h/mL.

**Q.** What about the Cl_F_obs [1, 8] of the same compound?
**A.** Its Cl_F_obs is 10.8 ± 4.8 mL/day/kg.

**Q.** And the Cmax [1, 8]?
**A.** Its Cmax is 7970 ± 4475 ng/mL.

**Q.** What about the MRT [1, 8] of the same compound?
**A.** The MRT was 4.16 ± 0.41 h.

**Q.** What about the T1/2 [1, 8] of the same compound?
**A.** Its T1/2 is 5.53 ± 2.98 h.

**Q.** And the Tmax [1, 8]?
**A.** Its Tmax is 1.00 ± 0.00 h.

**Q.** And the solubility ([2]; hydrochloric acid pH 1.0 (0.1N), 25° C.)?
**A.** The solubility was 48.62 µg/mL.

**Q.** And the solubility ([2]; hydrochloric acid pH 1.0 (0.1N), 37° C.)?
**A.** Its solubility is 57.33 µg/mL.

**Q.** What about the solubility ([2]; phosphate buffer pH 6.8, 37° C.) of the same compound?
**A.** Its solubility is 42.74 µg/mL.

**Q.** And the solubility ([2]; phosphate buffer, 25 °C, pH 6.8, aqueous buffer, thermodynamic from solid, phosphate buffer pH 6.8, 25° C., read-out: Solubility)?
**A.** The solubility was 37.2 µg/mL.

**Q.** What about the solubility ([2]; pure water, 25° C.) of the same compound?
**A.** Its solubility is 55.78 µg/mL.

**Q.** And the solubility ([2]; pure water, 37° C.)?
**A.** Its solubility is 67.98 µg/mL.
